Measured values as given in US5491159A, “2-(3,5-di-tert-butyl-4-hydroxy-phenyl)-oxazoles as anti-atherosclerotic agents” (American Home Products Corporation, priority 1994, dated 1996).

Tests used:
rabbit or monkey LDL = assay: Inhibition of Copper Ion Mediated Oxidation of Low Density Lipoprotein (in vitro); assay type: biochemical; conditions: Cu^+2, rabbit or monkey LDL, 37° C., 90 minutes, absorbance at 532 nm; non-linear regression log [I] vs. % inhibition
Protocol: In this in vitro assay, the inhibition of Cu^+2 mediated oxidation of rabbit or monkey LDL by an invention compound is determined spectrophotometrically. Oxidation of LDL results in the formation of LDL-diene which absorbs light at 532 nm. Inhibition of oxidation of LDL leads to a decrease in absorbance at 532 nm.
Rabbit or monkey LDL is prepared according to the procedures of Havel, Eder and Gragdon, "The Distribution and Chemical Composition of Ultracentrifugally Separated Lipoproteins in Human Serum,: J. Clin. Invest. 34, 1345-1353 (1955) and Parhtasarathy, Wieland and Steriberg, "A Role for Endothelial Cell Lipoxygenase in the Oxidative Modification of Low Density Lipoprotein, " Proc. Natl. Acad. Sci. USA 86, 1046-1050 (1989). Test compound solutions are prepared by dissolving the invention compounds in ethanol at concentrations up to 248 μM. The medium used is Dulbecco's phosphate buffered saline containing 0.5 mg/ml bovine serum albumin. For standards, 0 to 10 μl of an aqueous solution of 1,1,3,3-tetraethoxypropane (1 μmol/ml H2 O) in 4.1 ml of medium is used.
Test compound solution (100 μl) is added to 4 ml of medium in incubation tubes. To each tube is added 10 μl of LDL solution and 25 μl of aqueous copper sulfate solution (1.32 mg/ml H2 O). The tubes are incubated at 37° C. for 90 minutes and the oxidation reaction quenched by addition of 1 ml of thiobarbituric acid solution (0.67% in 50% acetic acid). The tubes are heated at 90° C. for 1 hour, then chilled in an ice bath and the chromophore extracted into 2 ml of n-butanol. Absorbence is read at 532 nm and the results are reported as nmols of malondialdehyde equivalents.
Significant differences (p<0.05) are determined by the Dunnett T-test or by the Student-Newman Keuls Test for significant differences between means. The assay is conducted using several concentrations [I] of the inhibitor test compounds. The LDL solution concentrations at different experiments were either 1.5 mg/ml, 2.5 mg/ml or 10.3 mg/ml. The IC50 is determined by non-linear regression, plotting log [I] vs. % inhibition. (Reference: K. Yagi, Biochemical Medicine 15, 212-216 (1976)).

WHHL rabbits = conditions: cited from earlier work
LDL [1] = conditions: cited from earlier work
LDL [2] = conditions: cited from earlier work; remark: listed apart in the source

SMILES | IC50 (rabbit or monkey LDL) | inhibition of the formation of atherosclerotic lesions (in words) (WHHL rabbits) | inhibition of Cu^+2 mediated oxidative modification of LDL (in words) (LDL [1]) | inhibition of cell mediated oxidative modification of LDL (in words) (LDL [2])
COC(=O)Cc1nc(-c2cc(C(C)(C)C)c(O)c(C(C)(C)C)c2)oc1C [Example 1, [2-(3,5-di-tert-butyl-4-hydroxyphenyl)-5-methyloxazol-4-yl]-acetic acid methyl ester] | 70 nM | – | – | –
Cc1oc(-c2cc(C(C)(C)C)c(O)c(C(C)(C)C)c2)nc1CC(=O)O [Example 2, [2-(3,5-di-tert-butyl-4-hydroxyphenyl)-5-methyloxazol-4-yl]-acetic acid] | 160 nM | – | – | –
CCOC(=O)Cc1nc(-c2cc(C(C)(C)C)c(O)c(C(C)(C)C)c2)oc1C [Example 3, [2-(3,5-di-tert-butyl-4-hydroxyphenyl)-5-methyloxazol-4-yl]-acetic acid ethyl ester] | 270 nM | – | – | –
COC(=O)Cc1coc(-c2cc(C(C)(C)C)c(O)c(C(C)(C)C)c2)n1 [Example 4, [2-(3,5-di-tert-butyl-4-hydroxyphenyl)-oxazol-4-yl]-acetic acid methyl ester] | 250 nM | – | – | –

Now from value to compound, other results behind:

IC50 (rabbit or monkey LDL) | SMILES | inhibition of the formation of atherosclerotic lesions (in words) (WHHL rabbits) | inhibition of Cu^+2 mediated oxidative modification of LDL (in words) (LDL [1]) | inhibition of cell mediated oxidative modification of LDL (in words) (LDL [2])
230 nM | COC(=O)NC(=O)Cc1nc(-c2cc(C(C)(C)C)c(O)c(C(C)(C)C)c2)oc1C [Example 5, {2-[2-(3,5-di-tert-butyl-4-hydroxyphenyl)-5-methyloxazol-4-yl]acetyl}carbamic acid methyl ester] | – | – | –
270 nM | CC(C)(Sc1cc(C(C)(C)C)c(O)c(C(C)(C)C)c1)Sc1cc(C(C)(C)C)c(O)c(C(C)(C)C)c1 [probucol] | inhibit the formation of atherosclerotic lesions in WHHL rabbits | inhibits both cell mediated and Cu^+2 mediated oxidative modification of LDL | inhibits both cell mediated and Cu^+2 mediated oxidative modification of LDL
